The text below walks through data of patent US9169241B2, “Quinolinyloxyphenylsulfonamides” (Max-Planck-Gesellschaft Zur Forderung der Wissenschaften …, priority 2009, dated 2015).

The target of data set [1] is T1, wild type AXL (wtAXL) receptor tyrosine kinase (Homo sapiens, UniProt P30530).
T1 construct: WtAXL cDNA was cloned into vector pLXSN(ESK) and transfected into Phoenix E packaging cells; expressed in transfected cells; host or cells: NIH3T3 N7 (mouse fibroblasts), retrovirally infected, clone 22
T1 sequence (P30530 26-894): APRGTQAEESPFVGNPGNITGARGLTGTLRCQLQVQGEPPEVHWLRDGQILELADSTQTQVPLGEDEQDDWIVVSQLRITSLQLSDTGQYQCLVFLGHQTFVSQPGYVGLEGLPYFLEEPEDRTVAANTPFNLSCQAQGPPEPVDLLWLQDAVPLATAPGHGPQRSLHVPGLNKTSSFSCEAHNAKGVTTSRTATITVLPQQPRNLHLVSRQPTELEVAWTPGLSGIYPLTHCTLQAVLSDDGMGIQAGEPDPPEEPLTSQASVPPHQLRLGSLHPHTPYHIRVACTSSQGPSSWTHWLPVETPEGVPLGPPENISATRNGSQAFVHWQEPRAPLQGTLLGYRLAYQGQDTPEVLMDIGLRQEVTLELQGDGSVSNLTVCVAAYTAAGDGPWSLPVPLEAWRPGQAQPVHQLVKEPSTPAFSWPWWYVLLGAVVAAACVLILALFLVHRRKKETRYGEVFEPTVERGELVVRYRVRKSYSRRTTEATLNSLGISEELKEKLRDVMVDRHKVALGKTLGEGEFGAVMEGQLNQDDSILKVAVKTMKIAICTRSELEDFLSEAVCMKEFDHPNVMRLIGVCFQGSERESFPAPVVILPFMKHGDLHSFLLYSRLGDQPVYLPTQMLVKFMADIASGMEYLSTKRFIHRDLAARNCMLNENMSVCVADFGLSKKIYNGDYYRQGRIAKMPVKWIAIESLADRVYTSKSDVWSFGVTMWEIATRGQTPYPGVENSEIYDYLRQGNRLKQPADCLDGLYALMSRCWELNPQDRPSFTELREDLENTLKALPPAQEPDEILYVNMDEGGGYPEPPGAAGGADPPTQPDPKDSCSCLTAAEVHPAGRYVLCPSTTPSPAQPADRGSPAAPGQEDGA
Nature of the data set: NIH-3T3-AXL cellular kinase assay (pY-AXL-ELISA). Format: cell-based. The conditions noted are these: NIH-3T3-AXL (clone 22) cells, serum depleted, compounds 1 h; Table Ia. The protocol:
WtAXL cDNA was cloned into vector pLXSN(ESK) and transfected into Phoenix E packaging cells. The viral supernatant was collected and used to infect target cells NIH3T3 N7. Monoclonal NIH3T3-AXL cell lines stably expressing wtAXL were generated by selecting retrovirally infected cells in medium containing puromycin (2 μg/ml) and subsequent clonal separation.
Serial dilutions of compounds were added, and the cells were further incubated for 1 h. Cells were washed with PBS and lysed on ice in 500 μl lysis buffer (50 mM HEPES (pH 7.5), 150 mM NaCl, 1 mM EGTA, 10% Glycerol, 1% Triton X-100, 100 mM NaF, 10 mM Na4P2O7.10H2O, 1 mM Na3VO4, 1 mM phenylmethylsulfonyl fluoride, and […]) for 15 min. The cell lysate were used for phosphotyrosine AXL enzyme-linked immunosorbant assay (pY-AXL-ELISA). […] Subsequently 96-well plates were blocked with PBS-0.05% Tween®20+10% FBS for 4 h at 37° C. Plates were washed 5 times with PBS-0.05% Tween®20 and 95 μl of lysate was transferred per well for incubation overnight at 4° C. Plates were washed 5 times with PBS-0.05% Tween®20 (Sigma, Steinheim, Germany). For detection of phosphorylated tyrosine we used homemade biotynilated 4G10-antibody (0.5 μg/ml) in PBS-0.05% Tween®20+10% FBS (100 μl/well) and incubated the 96-well plate for 2 h at room temperature. The anti-phosphotyrosine mouse monoclonal antibody 4G10 was biotynilated with Sulfo-NHS®-Biotin according to the suppliers protocol (Pierce, Rockford, Ill., USA) and purified by Mirco Bio-Spin 6 Chromatograpy Columns (BIO RAD Laboratories, Inc., Hercules, Calif., USA) using PBS as diluent. Plates were washed 5 times with PBS-0.05% Tween®20. For biding to biotin Alkaline Phosphatase Conjugated Strepavidin SA110 (Millipore, Billerica, Mass., USA) (1:4000) was used in PBS-0.05% Tween20+10% FBS (100 μl/well) and incubated for 30 min at room temperature. Plates were washed 5 times with PBS-0.05% Tween20. For fluorimetric detection of alkaline phosphatase AttoPhos Substrate Set (Roche diagnostics GmbH, Mannheim, Germany) was used (100 μl/well). The fluorimetric signal was quantified after 90 min at 430/560 nm wavelength using a TECAN Ultra Evolution plate reader (Tecan Deutschland GmbH, Crailsheim, Germany).
(ELISA stands for enzyme-linked immunosorbent assay.)

Data set [2] concerns Hs578T. Nature of the data set: Cell vitality assay (ATP assay, CellTiter-Glo). Format: cell-based. The following applies: Homo sapiens, Hs-578T; HS578T cell line, 72 h; Table Ib; read-out: IC50 ATP-Assay HS578T after 72 h. A digest of the protocol:
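1000 cells/well were exposed to compound at 12.5 μM down to 0.195 μM (twofold steps) or DMSO for 72 h. ATP was then measured by luminescence after 10 min reagent lysis at room temperature. IC50 was taken as the concentration giving 50% of the DMSO-control ATP level.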
Background: ATP-based viability assays read luminescence as a measure of living cells.

In data set [3] the test system is Hs578T. Kind of data set: Wound healing migration assay. Format: cell-based. The conditions noted are these: Homo sapiens, Hs-578T; HS578T cell line; Table Ib. The gist of the method: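 Cells seeded at 150000/24 well, grown to monolayer overnight, scratched with a pipette tip, then treated with compound at 12.5, 6.25 or 3.125 μM versus DMSO. Stopped by crystal violet fixation at 48-72 h once control wounds closed; IC50 taken as 50% wound size between t0 and t48 or t72.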

Data set [4] relates to Hs578T. Kind of data set: Matrigel outgrowth assay/branching assay. Format: cell-based. The conditions noted are these: Homo sapiens, Hs-578T; HS578T cell line; Table Ib; read-out: Total branching inhibition in Matrigel HS578T. A digest of the protocol: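 Read-out: microscopic images of invasive branching structures at 48 h, 72 h and 96 h. Cells sat on a 3 mg/ml Matrigel layer (set 1 h, 37° C) with compound at 3.125, 1.56 and 0.78 μM or DMSO. A concentration counts as positive only with complete branching inhibition.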

On to `COc1cc2c(Oc3ccc(NS(=O)(=O)c4ccc(C)s4)cc3F)ccnc2cc1OCCCN1CCCC(C)C1` (stereo not shown) [Example 62, 5-Methyl-thiophene-2-sulfonic acid (3-fluoro-4-{6-methoxy-7-[3-(3-methyl-piperidin-1-yl)-propoxy]-quinolin-4-yloxy}-phenyl)-amide], for which the melting point lay in the range of 99 to 101 °C. Further, in data set [1], the IC50 is < 0.5 µM. Also, in the data set on Hs578T [2], the IC50 is ≤ 12.5 µM. For the same compound, in the data set with Hs578T [3], the IC50 lay in the range of 12.5 to 50 µM. The IC50 in the data set with Hs578T [4] lay in the range of 10 to 25 µM.

The compound `COc1cc2c(Oc3ccc(NS(=O)(=O)c4c(Cl)csc4Cl)cc3F)ccnc2cc1OCCCN1CCCC(C)C1` (stereo not shown) [Example 64, 2,4-Dichloro-thiophene-3-sulfonic acid (3-fluoro-4-{6-methoxy-7-[3-(3-methyl-piperidin-1-yl)-propoxy]-quinolin-4-yloxy}-phenyl)-amide] showed a melting point of 119 to 121 °C. Further, the IC50 in data set [1] is < 0.5 µM. Also, the IC50 in the data set on Hs578T [2] was ≤ 12.5 µM. The IC50 with Hs578T [3] is ≤ 12.5 µM. The IC50 in the data set on Hs578T [4] fell in the range of 10 to 25 µM.

In the case of `COc1cc2c(Oc3ccc(NS(=O)(=O)c4ccsc4)cc3F)ccnc2cc1OCCCN1CCCC(C)C1` (stereo not shown) [Example 65, Thiophene-3-sulfonic acid (3-fluoro-4-{6-methoxy-7-[3-(3-methyl-piperidin-1-yl)-propoxy]-quinolin-4-yloxy}-phenyl)-amide], the melting point was 174 to 176 °C. Also, the IC50 in data set [1] was < 0.5 µM. Further, the IC50 in the data set on Hs578T [2] is ≤ 12.5 µM. Moreover, the IC50 in the data set with Hs578T [3] is ≤ 12.5 µM. Moreover, in the data set with Hs578T [4], the IC50 lay within 10 to 25 µM.

`COc1cc2c(Oc3ccc(NS(=O)(=O)c4csc5ccccc45)cc3F)ccnc2cc1OCCCN1CCCC(C)C1` (stereo not shown) [Example 67, Benzo[b]thiophene-3-sulfonic acid (3-fluoro-4-{6-methoxy-7-[3-(3-methyl-piperidin-1-yl)-propoxy]-quinolin-4-yloxy}-phenyl)-amide] yielded a melting point of 126 to 128 °C. Also, the IC50 in data set [1] is < 0.5 µM. Further, the IC50 in the data set with Hs578T [2] was ≤ 12.5 µM. The IC50 in the data set on Hs578T [3] is ≤ 12.5 µM. Further, in the data set on Hs578T [4], the IC50 was ≤ 10 µM.

The compound `COc1cc2c(Oc3ccc(NS(=O)(=O)c4cc(Cl)cc(Cl)c4OC)cc3F)ccnc2cc1OCCCN1CCOCC1` [Example 76, 3,5-Dichloro-N-{3-fluoro-4-[6-methoxy-7-(3-morpholin-4-yl-propoxy)-quinolin-4-yloxy]-phenyl}-2-methoxy-benzenesulfonamide] showed a melting point of 189 to 191 °C. The IC50 in data set [1] was < 0.5 µM. Further, the IC50 in the data set on Hs578T [2] is ≤ 12.5 µM. The compound also showed an IC50 with Hs578T [3] of 12.5 to 50 µM. In the data set with Hs578T [4], the IC50 was 10 to 25 µM.

`COc1cc2c(Oc3ccc(NS(=O)(=O)c4ccccc4C(F)(F)F)cc3C)ccnc2cc1OCCCN1CCC(C)CC1` [Example 89, N-(4-{6-Methoxy-7-[3-(4-methyl-piperidin-1-yl)-propoxy]-quinolin-4-yloxy}-3-methyl-phenyl)-2-trifluoromethyl-benzenesulfonamide]: the melting point is 165 to 167 °C. For the same compound, the IC50 in data set [1] was < 0.5 µM. In addition, in the data set with Hs578T [2], the IC50 is ≤ 12.5 µM. For the same compound, the IC50 in the data set on Hs578T [3] was ≤ 12.5 µM. Further, in the data set with Hs578T [4], the IC50 is ≤ 10 µM.

Consider `COc1cc2c(Oc3ccc(NS(=O)(=O)c4cc(Cl)ccc4Cl)cc3F)ccnc2cc1OCCN1CCOCC1` [Example 106, 2,5-Dichloro-N-{3-fluoro-4-[6-methoxy-7-(2-morpholin-4-yl-ethoxy)-quinolin-4-yloxy]-phenyl}-benzenesulfonamide], for which the melting point was 194 to 196 °C. Also, in data set [1], the IC50 is < 0.5 µM. Moreover, the IC50 in the data set with Hs578T [2] is ≤ 12.5 µM. Further, the IC50 in the data set with Hs578T [3] is 12.5 to 50 µM. Further, the IC50 with Hs578T [4] was in the range of 10 to 25 µM.

With `COc1cc2c(Oc3ccc(NS(=O)(=O)c4ccccc4Cl)cc3F)ccnc2cc1OCCN1CCOCC1` [Example 108, 2-Chloro-N-{3-fluoro-4-[6-methoxy-7-(2-morpholin-4-yl-ethoxy)-quinolin-4-yloxy]-phenyl}-benzenesulfonamide], the melting point is 180 to 181 °C. Also, the IC50 in data set [1] is < 0.5 µM. Moreover, the IC50 in the data set on Hs578T [2] was ≤ 12.5 µM. In the data set on Hs578T [3], this compound yielded an IC50 of 12.5 to 50 µM. Besides, in the data set on Hs578T [4], the IC50 fell in the range of 10 to 25 µM.

One may read the melting point as the temperature, or range, at which the solid turns liquid.
